Legend:
[1] = test system: 22Rv1; assay: 22Rv1 cell proliferation assay (Experimental Example 1, cell count); format: cell-based; settings: Homo sapiens, 22Rv1, read-out: 22Rv1 cell count decrease at 10 μM for 48 hours; 10 μM (method: four days); read-out: 22Rv1 cell count decrease at 10 μM
Experimental: The human prostate cancer cell line, 22Rv1 has been reported to express a high level of AR-V7. […] Standard culture media was RPMI-1640 supplemented with 10% fetal bovine serum. The test compound initially was dissolved in DMSO at 50 mM. This stock solution was then diluted as needed for the indicated concentrations. […]
In the Table: (+)—the cell count decreased between 0 and 20%; (++)—the cell count decreased […]; (+++)—the cell count decreased by more than 50%.

[2] = test system: 22Rv1-Enz^R cells; assay: 22Rv1-Enz^R cell proliferation (cell count, Experimental Example 3); format: cell-based, human; settings: 10 μM, 4 days, MG-132 (5 μM) pretreatment
Experimental: The human prostate cancer cell line, 22Rv1 has been reported to express a high level of AR-V7. Thus, 22Rv1 was seeded at 50,000 cells/well on a 24-well plate in quadruplicates and treated with test compound in concentrations ranging up to 20 μM for four days. Standard culture media was RPMI-1640 supplemented with 10% fetal bovine serum. The test compound initially was dissolved in DMSO at 50 mM. This stock solution was then diluted as needed for the indicated concentrations. At the end of the four-day period, cells were harvested using 1% trypsin and counted using an automated cell counter.
Cell Culture. Human CaP cell lines, LNCaP, 22Rv1, VCaP, PC3, and DU145 are obtained from the American Type Culture Collection (ATCC) and maintained in the standard culture media: RPMI-1640 supplemented with 10% fetal bovine serum (FBS). LNCaP, 22Rv1, and VCaP are androgen-responsive cell lines, while PC3 and DU145 are not. To establish SAT resistant CaP cell lines, LNCaP, 22Rv1, and VCaP are treated continuously with 10-50 μM abiraterone, apalutamide, darolutamide, or enzalutamide. After 3-6 months, stable cell lines are established and designated as LNCaP-Abi^R, LNCaP-Apa^R, LNCaP-Daro^R, LNCaP-Enz^R, VCaP-Abi^R, VCaP-Apa^R, VCaP-Daro^R, VCaP-Enz^R, 22Rv1-Abi^R, 22Rv1-Apa^R, 22Rv1-Daro^R and 22Rv1-Enz^R. Unless otherwise specified, the standard culture media for these SAT-resistant cell lines included 10 μM of their respective SAT. For the proteasome inhibitor study, the inhibitors MG132 and Epoxomicin are used. The E3 ligase inhibitors Heclin, Nutlin 3a, Thalidomide, and VH298 are used. Cell lines obtained from ATCC are confirmed by checking their morphology using optical microscopy, establishing baselines for cell proliferation, verifying species of origin using isoenzymology, and characterizing the cell's DNA fingerprint using short tandem repeat (STR) profiling. Mycoplasma contamination is also assessed using a PCR based detection system.

[3] = test system: 22Rv1 cells; assay: Apoptosis assay (annexin-V, TUNEL) in 22Rv1; format: cell-based, human; settings: 22Rv1, 1 μM, 0 to 48 hours; starts approximately three hours after treatment, increases through 48 hours
Experimental: Apoptosis Assay. An apoptosis assay is carried out using the Thermo Fisher ApoDETECT Annexin V-FITC kit following the protocol recommended by the vendor. […] Then, fixed cells are incubated with Annexin V-FITC in PBS solution for 30 minutes at room temperature. After washing three times with PBS, cells are treated with 300 nM DAPI in PBS for 5 minutes at room temperature. Finally, after washing three times with PBS, mounting solution is added and the cells are visualized using immunofluorescence microscopy. Next, a TUNEL assay is performed using Promega DeadEnd Fluorometric TUNEL system. After treatment with Test Compound and fixation as described above in the Annexin-V experiment, 100 μl of equilibration buffer is incubated for 10 min. Then, 50 μl of TdT reaction mix is added and incubated for 60 min at 37° C. in a humidified chamber. Finally, stop solution is added and samples are mounted on slides using mounting medium. To assess non-specific cytotoxicity, an LDH assay kit is used.

`Cl.NCCCCCCCCCCNc1cccc2c1C(=O)N(C1CCC(=O)NC1=O)C2=O` (centres unmarked) [Example 34, 4-((10-aminodecyl)amino)-2-(2,6-dioxopiperidin-3-yl)isoindoline-1,3-dione hydrochloride] was tested, and the inhibition at 10 µM [1] was < 50% and the “reduction of 22Rv1-Enz^R cell counts after pretreatment with MG-132” value [2] was “substantially blocked”.

With `CN[C@@H](C)C(=O)N[C@H](C(=O)N1Cc2cc(OCCOCCOc3c(-c4csc(N5CCOCC5)n4)ccc(F)c3F)ccc2C[C@H]1C(=O)N[C@@H]1CCCc2ccccc21)C(C)(C)C.Cl.Cl` [Example 35, (S)-7-(2-(2-(2,3-difluoro-6-(2-morpholinothiazol-4-yl)phenoxy)ethoxy)ethoxy)-2-((S)-3,3-dimethyl-2-((S)-2-(methylamino)propanamido)butanoyl)-N-((R)-1,2,3,4-tetrahydronaphthalen-1-yl)-1,2,3,4-tetrahydroisoquinoline-3-carboxamide dihydrochloride] the inhibition at 10 µM [1] was > 50% and the “reduction of 22Rv1-Enz^R cell counts after pretreatment with MG-132” value [2] was “substantially blocked”.

With `O=C(O)CCCCNC(=O)COc1c(-c2csc(N3CCOCC3)n2)ccc(F)c1F` [Example C1, reference compound] the “apoptosis, annexin-V assay” value [3] was “no change in apoptosis”.

From patent publication US20230132823A1, “BI-FUNCTIONAL COMPOUNDS AND METHODS FOR TARGETED UBIQUITINATION OF ANDROGEN RECEPTOR” (MONTELINO THERAPEUTICS, INC., priority 2020, published 2023)
